Assay: xn = mol fraction of the nth substance listed
Conditions: Liquid, Static

CCn1cc[n+](C)c1.O=S(=O)([N-]S(=O)(=O)C(F)(F)F)C(F)(F)F + O=C=O
Conditions	molar volume [m3/mol]
298.15 K, 1235 kPa, x2 = 0.28	0.000204
298.15 K, 3254 kPa, x2 = 0.533	0.0001415
298.15 K, 6471 kPa, x2 = 0.747	9.622e-05
298.15 K, 10194 kPa, x2 = 0.767	9.034e-05
298.15 K, 11608 kPa, x2 = 0.777	8.747e-05
298.15 K, 13084 kPa, x2 = 0.781	8.646e-05
298.15 K, 14794 kPa, x2 = 0.782	8.625e-05
323.15 K, 2005 kPa, x2 = 0.302	0.0002021
323.15 K, 4250 kPa, x2 = 0.483	0.0001607
323.15 K, 6213 kPa, x2 = 0.587	0.0001367
323.15 K, 8156 kPa, x2 = 0.657	0.0001197
323.15 K, 10081 kPa, x2 = 0.711	0.0001049
323.15 K, 12307 kPa, x2 = 0.743	9.597e-05
323.15 K, 14625 kPa, x2 = 0.749	9.492e-05
343.15 K, 2182 kPa, x2 = 0.247	0.0002186
343.15 K, 4070 kPa, x2 = 0.416	0.0001777
343.15 K, 6063 kPa, x2 = 0.509	0.0001559
343.15 K, 7999 kPa, x2 = 0.579	0.0001394
343.15 K, 9938 kPa, x2 = 0.636	0.0001249
343.15 K, 12143 kPa, x2 = 0.684	0.0001117
343.15 K, 14682 kPa, x2 = 0.709	0.0001056

CCCCCCCCCCn1cc[n+](C)c1.O=S(=O)([N-]S(=O)(=O)C(F)(F)F)C(F)(F)F + O=C=O
Conditions	molar volume [m3/mol]
298.15 K, 1474 kPa, x2 = 0.35	0.0002775
298.15 K, 2828 kPa, x2 = 0.562	0.0001997
298.15 K, 4516 kPa, x2 = 0.709	0.000147
298.15 K, 6799 kPa, x2 = 0.81	0.0001111
298.15 K, 8659 kPa, x2 = 0.83	0.0001006
298.15 K, 10909 kPa, x2 = 0.841	9.556e-05
298.15 K, 12873 kPa, x2 = 0.848	9.235e-05
298.15 K, 14847 kPa, x2 = 0.849	9.169e-05
323.15 K, 1439 kPa, x2 = 0.257	0.0003212
323.15 K, 3371 kPa, x2 = 0.489	0.0002347
323.15 K, 6891 kPa, x2 = 0.696	0.0001569
323.15 K, 8581 kPa, x2 = 0.752	0.0001354
323.15 K, 10917 kPa, x2 = 0.8	0.0001145
323.15 K, 13030 kPa, x2 = 0.814	0.0001086
323.15 K, 14596 kPa, x2 = 0.819	0.0001071
343.15 K, 2003 kPa, x2 = 0.302	0.0003089
343.15 K, 3941 kPa, x2 = 0.475	0.0002428
343.15 K, 6242 kPa, x2 = 0.587	0.0002017
343.15 K, 8674 kPa, x2 = 0.683	0.000164
343.15 K, 10773 kPa, x2 = 0.744	0.0001384
343.15 K, 12515 kPa, x2 = 0.776	0.0001249
343.15 K, 14534 kPa, x2 = 0.801	0.000113

CCCCCC[n+]1ccn(C)c1.O=S(=O)([N-]S(=O)(=O)C(F)(F)F)C(F)(F)F + O=C=O
Conditions	molar volume [m3/mol]
298.15 K, 2015 kPa, x2 = 0.396	0.0002205
298.15 K, 3586 kPa, x2 = 0.592	0.000163
298.15 K, 6489 kPa, x2 = 0.762	0.0001127
298.15 K, 8967 kPa, x2 = 0.8	9.883e-05
298.15 K, 10321 kPa, x2 = 0.81	9.556e-05
298.15 K, 11969 kPa, x2 = 0.819	9.198e-05
298.15 K, 13525 kPa, x2 = 0.822	9.084e-05
298.15 K, 14804 kPa, x2 = 0.823	9.095e-05
323.15 K, 800 kPa, x2 = 0.139	0.0003082
323.15 K, 3716 kPa, x2 = 0.487	0.0002013
323.15 K, 5430 kPa, x2 = 0.583	0.0001725
323.15 K, 6560 kPa, x2 = 0.637	0.0001568
323.15 K, 8039 kPa, x2 = 0.692	0.0001395
323.15 K, 9078 kPa, x2 = 0.726	0.0001282
323.15 K, 9969 kPa, x2 = 0.751	0.000118
323.15 K, 11081 kPa, x2 = 0.769	0.0001108
323.15 K, 12224 kPa, x2 = 0.774	0.0001094
323.15 K, 12959 kPa, x2 = 0.779	0.0001079
343.15 K, 1793 kPa, x2 = 0.14	0.0003081
343.15 K, 2754 kPa, x2 = 0.239	0.0002782
343.15 K, 5537 kPa, x2 = 0.436	0.0002194
343.15 K, 8861 kPa, x2 = 0.596	0.0001701
343.15 K, 11560 kPa, x2 = 0.673	0.0001447
343.15 K, 14469 kPa, x2 = 0.721	0.0001282
343.15 K, 19818 kPa, x2 = 0.755	0.0001169
343.15 K, 24708 kPa, x2 = 0.771	0.0001115

— the NIST ThermoML archive (doi:10.1016/j.jct.2009.08.018)
